{"source": "ChEMBL document CHEMBL4261555", "about": "“Identification of a potent kinase inhibitor targeting EML4-ALK fusion protein in non-small cell lung cancer” (Medchemcomm, 2017)", "key": {"[1]": {"target": "T1, ALK tyrosine kinase receptor (Homo sapiens, UniProt Q9UM73)", "experiment": "Inhibition of EML4-fused ALK in human NCI-H2228 cells assessed as suppression of AKT phosphorylation after 48 hrs by Western blot method", "type": "cell-based"}, "NCI-H2228 [2]": {"test_system": "NCI-H2228", "experiment": "Induction of apoptosis in human NCI-H2228 cells at 10 uM after 48 hrs by annexin V-FITC/propidium iodide staining-based flow cytometric method (reference value: 4.5%)", "type": "functional"}, "NCI-H2228 [3]": {"test_system": "NCI-H2228", "experiment": "Induction of apoptosis in human NCI-H2228 cells at 5 uM after 48 hrs by annexin V-FITC/propidium iodide staining-based flow cytometric method (reference value: 4.5%)", "type": "functional"}, "[4]": {"target": "T1, ALK tyrosine kinase receptor", "experiment": "Inhibition of EML4-fused ALK autophosphorylation at Tyr1282/1283 in human NCI-H2228 cells at 2.5 to 10 uM after 48 hrs by Western blot method", "type": "cell-based"}, "NCI-H2228 [5]": {"test_system": "NCI-H2228", "experiment": "Induction of apoptosis in human NCI-H2228 cells after 48 hrs by annexin V-FITC/propidium iodide staining-based flow cytometric method", "type": "functional, cell-based"}, "NCI-H2228 [6]": {"test_system": "NCI-H2228", "conditions": "Homo sapiens", "description": "(§1) Cytotoxicity against human NCI-H2228 cells harboring EML4-ALK fusion protein assessed as decrease in cell viability after 72 hrs by MTT assay"}, "[7]": {"target": "T1, ALK tyrosine kinase receptor", "experiment": "Inhibition of EML4-fused ALK in human NCI-H2228 cells assessed as suppression of STAT3 phosphorylation after 48 hrs by Western blot method", "type": "cell-based"}, "[8]": {"target": "T1, ALK tyrosine kinase receptor", "description": "Inhibition of recombinant ALK (unknown origin) after 1 hr by fluorescence assay"}, "NCI-H2228 [9]": {"test_system": "NCI-H2228", "experiment": "cells", "conditions": "Homo sapiens, NCI-H2228, 72 h", "description": "as §1"}, "[10]": {"target": "T1, ALK tyrosine kinase receptor", "experiment": "Inhibition of EML4-fused ALK in human NCI-H2228 cells assessed as suppression of ERK1/2 phosphorylation after 48 hrs by Western blot method", "type": "cell-based"}, "NCI-H2228 [11]": {"test_system": "NCI-H2228", "experiment": "Anticlonogenic activity against human NCI-H2228 cells treated every 3 days for 10 days by crystal violet staining based assay", "type": "functional, cell-based"}}, "note": "Activity calls are given as the source filed them. No cut-off for these calls is given here.", "data": [{"compound": "CC1=C(C)C2C(=O)N3N=C(NCCCN(C)C)c4ccccc4C3=NC2S1", "note": "(stereo unspecified)", "values": [{"measurement": "inhibition", "setting": "[1]", "value": "Dose-dependent effect"}, {"measurement": "Activity", "setting": "NCI-H2228 [2]", "value": 37.5, "unit": "%"}, {"measurement": "Activity", "setting": "NCI-H2228 [3]", "value": 23.5, "unit": "%"}, {"measurement": "inhibition", "setting": "[4]", "value": "Active"}, {"measurement": "Activity", "setting": "NCI-H2228 [5]", "value": "Dose-dependent effect"}, {"measurement": "Activity", "setting": "NCI-H2228 [6]", "value": "Dose-dependent effect"}, {"measurement": "inhibition", "setting": "[7]", "value": "Dose-dependent effect"}, {"measurement": "EC50", "setting": "[8]", "value": 19.6, "unit": "µM"}, {"measurement": "IC50", "setting": "NCI-H2228 [9]", "value": 4.11, "unit": "µM"}, {"measurement": "inhibition", "setting": "[10]", "value": "Dose-dependent effect"}, {"measurement": "Activity", "setting": "NCI-H2228 [11]", "value": "Active"}]}]}
